Results taken from ChEMBL document CHEMBL1150409, “Development of paramagnetic probes for molecular recognition studies in protein kinases” (J Med Chem, 2008).
The source made the active and inactive calls. The calls are words filed in the database; no cut-off is given here. Peptide text beside a SMILES is read from it. * marks the point of attachment. X1 = O=C(NCCCN*)c1ccc(-c2n[nH]c3ccccc23)cc1

Legend:
[1] = target: Mitogen-activated protein kinase 9 (Homo sapiens) (UniProt P45984); assay: Displacement of biotin-labeled pep-JIP1 from GST fused JNK2 upto 200 uM by DELFIA assay
Chain of Mitogen-activated protein kinase 9 (Homo sapiens) (P45984 whole entry, looked up, the tested form may be a part): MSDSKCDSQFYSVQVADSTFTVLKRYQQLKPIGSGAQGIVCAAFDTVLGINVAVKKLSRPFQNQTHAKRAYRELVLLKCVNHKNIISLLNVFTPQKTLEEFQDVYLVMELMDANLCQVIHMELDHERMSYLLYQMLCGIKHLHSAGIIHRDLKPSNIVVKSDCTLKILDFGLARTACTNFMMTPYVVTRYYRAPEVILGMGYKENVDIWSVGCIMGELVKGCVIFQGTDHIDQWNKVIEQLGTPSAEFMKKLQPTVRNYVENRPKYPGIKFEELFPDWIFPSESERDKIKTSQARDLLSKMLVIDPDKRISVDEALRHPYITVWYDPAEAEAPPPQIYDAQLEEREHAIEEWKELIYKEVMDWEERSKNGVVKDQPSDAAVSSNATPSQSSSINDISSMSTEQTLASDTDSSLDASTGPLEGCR

[2] = target: Mitogen-activated protein kinase 8 (Homo sapiens, UniProt P45983); assay: Inhibition of JNK1 by TR-FRET assay
Chain of Mitogen-activated protein kinase 8 (P45983 whole entry, the tested form may be a part): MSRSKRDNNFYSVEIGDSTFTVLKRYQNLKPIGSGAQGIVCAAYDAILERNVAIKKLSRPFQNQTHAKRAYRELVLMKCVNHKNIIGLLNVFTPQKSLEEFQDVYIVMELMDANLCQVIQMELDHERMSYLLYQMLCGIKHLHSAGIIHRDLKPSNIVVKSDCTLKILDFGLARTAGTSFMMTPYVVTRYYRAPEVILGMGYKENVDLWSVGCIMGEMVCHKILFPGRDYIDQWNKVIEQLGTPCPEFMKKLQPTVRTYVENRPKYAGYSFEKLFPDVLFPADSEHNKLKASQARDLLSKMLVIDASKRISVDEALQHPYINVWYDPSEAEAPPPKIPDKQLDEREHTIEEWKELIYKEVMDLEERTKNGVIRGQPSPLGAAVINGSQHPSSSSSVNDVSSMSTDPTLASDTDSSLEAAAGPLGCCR

[3] = target: Mitogen-activated protein kinase 9 (Homo sapiens) (UniProt P45984); assay: Displacement of biotin-labeled pep-JIP1 from GST fused JNK2 by DELFIA assay
[4] = target: Mitogen-activated protein kinase 14 (Homo sapiens) (UniProt Q16539); assay: Inhibition of MAPK p38alpha upto 100 uM
Chain of Mitogen-activated protein kinase 14 (Homo sapiens) (Q16539 whole entry): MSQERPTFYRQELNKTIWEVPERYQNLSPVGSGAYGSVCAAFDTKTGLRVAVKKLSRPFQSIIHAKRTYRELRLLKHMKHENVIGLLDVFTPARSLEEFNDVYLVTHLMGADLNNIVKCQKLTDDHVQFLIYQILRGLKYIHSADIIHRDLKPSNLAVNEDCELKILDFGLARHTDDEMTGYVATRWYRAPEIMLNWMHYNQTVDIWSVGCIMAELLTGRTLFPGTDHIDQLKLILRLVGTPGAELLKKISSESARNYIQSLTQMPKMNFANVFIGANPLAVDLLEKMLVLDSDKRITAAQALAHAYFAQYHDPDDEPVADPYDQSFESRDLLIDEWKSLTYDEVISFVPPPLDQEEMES

| Structure (SMILES) | Activity [1] | IC50 [2] | IC50 [3] | further results |
| --- | --- | --- | --- | --- |
| CC(=O)N[C@@H](CC(C)C)C(=O)N[C@@H](CC(N)=O)C(=O)N[C@@H](CC(C)C)C(=O)O (Ac-Leu-Asn-Leu-OH) | inactive | – | – | – |
| CC(=O)N[C@@H](CC(C)C)C(=O)N[C@@H](CC(N)=O)C(=O)N[C@@H](CC(C)C)C(=O)NCC(=O)NCC(=O)O (Ac-LNLGG-OH) | inactive | – | – | – |
| O=C(O)CCCNC(=O)c1ccc(-c2n[nH]c3ccccc23)cc1 | – | 1400 nM | – | – |
| CC(=O)N[C@@H](CC(C)C)C(=O)N[C@@H](CC(N)=O)C(=O)N[C@@H](CC(C)C)C(=O)NCC(=O)NCC(=O)NCCCNC(=O)c1ccc(-c2n[nH]c3ccccc23)cc1 (Ac-LNLGG-X1) | – | 295 nM | 20 nM | Activity [4]: inactive |
| CC(=O)N[C@@H](CCCNC(=N)N)C(=O)N1CCC[C@H]1C(=O)N[C@H](C(=O)N[C@H](C(=O)N[C@@H](CC(C)C)C(=O)N[C@@H](CC(N)=O)C(=O)N[C@@H](CC(C)C)C(=O)O)[C@@H](C)O)[C@@H](C)O (Ac-RPTTLNL-OH) | – | – | 53000 nM | – |
| CC1(C)CC(NC(=O)CCCNC(=O)c2ccc(-c3n[nH]c4ccccc34)cc2)CC(C)(C)N1O | – | 1200 nM | – | – |
